This is an account of results in BindingDB's records for doi:10.1007/pl00005288 (King'S College London, 1998).

The Ki is the dissociation constant of the complex between target and ligand, obtained from inhibition or displacement.

The target in assay [1] is Melatonin receptor type 1A (Homo sapiens, UniProt P48039).
In assay [2] the target is T1, Melatonin receptor type 1B (Gallus gallus, UniProt P51050).
T1 sequence (P51050 whole entry): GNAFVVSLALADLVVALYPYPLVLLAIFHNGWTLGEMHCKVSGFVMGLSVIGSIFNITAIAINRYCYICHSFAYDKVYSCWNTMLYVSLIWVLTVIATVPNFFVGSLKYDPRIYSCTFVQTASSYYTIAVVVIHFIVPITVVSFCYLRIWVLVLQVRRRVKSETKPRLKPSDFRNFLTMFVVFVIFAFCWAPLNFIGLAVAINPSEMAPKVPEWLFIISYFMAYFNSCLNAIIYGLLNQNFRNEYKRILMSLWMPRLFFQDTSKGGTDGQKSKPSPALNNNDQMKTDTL

In assay [3] the target is T2, Melatonin receptor type 1C (Xenopus laevis, UniProt P49219).
T2 sequence (P49219 whole entry): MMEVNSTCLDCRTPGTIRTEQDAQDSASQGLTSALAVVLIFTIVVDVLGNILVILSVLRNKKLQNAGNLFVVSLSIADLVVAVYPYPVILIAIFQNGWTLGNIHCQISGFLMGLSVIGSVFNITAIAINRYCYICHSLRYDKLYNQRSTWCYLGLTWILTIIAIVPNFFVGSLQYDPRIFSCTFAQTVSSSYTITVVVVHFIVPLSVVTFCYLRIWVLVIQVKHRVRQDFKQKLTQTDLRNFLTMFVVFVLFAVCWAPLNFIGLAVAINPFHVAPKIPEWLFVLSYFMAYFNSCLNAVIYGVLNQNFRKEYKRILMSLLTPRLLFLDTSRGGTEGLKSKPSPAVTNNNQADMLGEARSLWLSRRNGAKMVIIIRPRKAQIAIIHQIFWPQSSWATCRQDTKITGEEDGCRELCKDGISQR

Assay [4] concerns the target T3, Melatonin receptor type 1B (Homo sapiens, UniProt P49286).
T3 sequence (P49286 whole entry): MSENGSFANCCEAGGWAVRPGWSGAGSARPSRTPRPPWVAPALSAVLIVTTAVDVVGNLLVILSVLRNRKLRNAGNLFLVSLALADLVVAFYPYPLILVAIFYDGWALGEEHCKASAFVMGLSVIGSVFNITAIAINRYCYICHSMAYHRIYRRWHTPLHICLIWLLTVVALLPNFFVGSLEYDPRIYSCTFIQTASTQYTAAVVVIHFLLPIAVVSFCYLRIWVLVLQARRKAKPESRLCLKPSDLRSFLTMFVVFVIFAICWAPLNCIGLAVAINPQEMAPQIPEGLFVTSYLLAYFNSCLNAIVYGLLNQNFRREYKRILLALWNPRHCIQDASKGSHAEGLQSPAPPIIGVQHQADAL

Melatonin receptor type 1A, sequence (P48039 whole entry): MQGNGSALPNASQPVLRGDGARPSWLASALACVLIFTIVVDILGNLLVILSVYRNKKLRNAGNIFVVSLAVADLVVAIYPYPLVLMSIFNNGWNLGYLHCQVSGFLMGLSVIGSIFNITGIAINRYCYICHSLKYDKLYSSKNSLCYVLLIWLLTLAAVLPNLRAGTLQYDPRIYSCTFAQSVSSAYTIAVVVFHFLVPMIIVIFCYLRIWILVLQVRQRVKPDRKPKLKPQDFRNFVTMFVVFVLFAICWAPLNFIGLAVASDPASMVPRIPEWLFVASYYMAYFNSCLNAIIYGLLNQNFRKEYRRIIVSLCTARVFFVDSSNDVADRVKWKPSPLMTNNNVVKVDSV

Take `CC(=O)NCCc1c(Cc2ccccc2)[nH]c2ccccc12` [CAS_117946-91-5]: the Ki worked out at 513 nM in assay [1], 1740 nM in assay [2], 2040 nM in assay [3] and 26.9 nM in assay [4].

As for `CCCCC(=O)NCCc1c(Cc2ccccc2)[nH]c2ccccc12` [Luzindole,N-pentanoyl], the Ki in assay [1] amounted to 832 nM; in assay [2], 933 nM; in assay [3] it was 2140 nM; in assay [4], 9.33 nM.

Take `CCCCCC(=O)NCCc1c(Cc2ccccc2)[nH]c2ccc(OC)cc12` [Luzindole,5-MeOT-N-hexanyl]: the Ki came to 339 nM in assay [1], 776 nM in assay [2], 1380 nM in assay [3] and 324 nM in assay [4].

On to `CCC(=O)NCCc1c(Cc2ccccc2)[nH]c2ccccc12` [Luzindole,N-propanoyl], for which the Ki came out at 776 nM in assay [1], 1950 nM in assay [2], 3160 nM in assay [3] and 22.9 nM in assay [4].

For `CCCC(=O)NCCc1c(Cc2ccccc2)[nH]c2ccccc12` [Luzindole,N-butanoyl], the Ki in assay [1] is 3020 nM; in assay [2], more than 10000 nM; in assay [3], 3800 nM; in assay [4] it was 1320 nM.

Regarding `CCCCCC(=O)NCCc1c(Cc2ccccc2)[nH]c2ccccc12` [Luzindole,N-hexanoyl], the Ki stood at 5500 nM in assay [1], 6460 nM in assay [2], 5750 nM in assay [3] and 7080 nM in assay [4].
